# Test results: US7595395B2, “Gabaergic agents to treat memory deficits” (priority 2005, dated 2009)
# Biological target: T1, α5β3γ2 benzodiazepine receptor GABA(A) isoform (UniProt P18507+P31644)
# T1 sequence (P18507 1-475): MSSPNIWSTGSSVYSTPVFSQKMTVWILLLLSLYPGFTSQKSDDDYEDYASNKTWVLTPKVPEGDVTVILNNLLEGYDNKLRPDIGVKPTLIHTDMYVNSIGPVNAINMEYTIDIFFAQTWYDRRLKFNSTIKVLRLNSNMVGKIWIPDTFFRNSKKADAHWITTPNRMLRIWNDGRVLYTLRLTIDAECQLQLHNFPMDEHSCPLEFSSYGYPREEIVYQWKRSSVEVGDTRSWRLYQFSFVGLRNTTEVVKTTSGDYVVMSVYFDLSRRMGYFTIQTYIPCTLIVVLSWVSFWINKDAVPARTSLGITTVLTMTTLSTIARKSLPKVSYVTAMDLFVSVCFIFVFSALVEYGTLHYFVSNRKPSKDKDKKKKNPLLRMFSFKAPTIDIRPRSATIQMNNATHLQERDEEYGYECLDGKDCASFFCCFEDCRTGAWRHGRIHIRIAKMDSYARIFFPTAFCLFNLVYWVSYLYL
# T1 sequence (P31644 1-462): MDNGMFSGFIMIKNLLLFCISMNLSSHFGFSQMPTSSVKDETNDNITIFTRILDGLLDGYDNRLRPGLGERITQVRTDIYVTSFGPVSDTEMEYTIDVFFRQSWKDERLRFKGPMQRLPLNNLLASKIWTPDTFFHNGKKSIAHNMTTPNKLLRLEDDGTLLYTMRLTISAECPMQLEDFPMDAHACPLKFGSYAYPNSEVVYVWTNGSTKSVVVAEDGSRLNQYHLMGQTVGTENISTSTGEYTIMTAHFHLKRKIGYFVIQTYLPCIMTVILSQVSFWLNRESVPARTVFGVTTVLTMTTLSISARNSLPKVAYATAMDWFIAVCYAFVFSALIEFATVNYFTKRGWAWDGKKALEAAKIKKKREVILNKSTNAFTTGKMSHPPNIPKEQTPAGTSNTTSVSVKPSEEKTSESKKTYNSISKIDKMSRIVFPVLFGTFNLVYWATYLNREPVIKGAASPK
# Experiment: Radioligand competition binding, α5β3γ2 BzR/GABA(A) isoform
# Design: Ki α5; means of two determinations; Ki α5; α5; other: text; species or system human and rat
# Conditions: read-out: Ki α5; Table I; means of two determinations
structure (smiles),measurement,value
C#CC#Cc1ccc2c(c1)C(=O)N1CCC[C@H]1c1c(C(=O)OCC)ncn1-2 [Ligand 14],Ki,64 nM
